According to patent US7803766B2, “Gastrin compositions and formulations, and methods of use and preparation” (Warath Pharmaceuticals, Inc, priority 2002, dated 2010):
Values belong to the compound of their own block, whether it stands above or below them. Where a SMILES comes first, the peptide text is derived from it. [ ]: non-standard residue; d: D form. pGlu = O=C1CC[C@@H](C(=O)O)N1

What was measured:
[1] = cynomolgus monkey, in vivo
[2] = test system: NOD mice with recent onset diabetes; experiment: Modified and unmodified gastrin in combination with GLP-1 in preventing diabetes progression in NOD mice with recent onset diabetes; format: in vivo; settings: 3 μg/kg/day gastrin equivalent with GLP-1 100 μg/kg/day i.p. daily for 14 days, compared to GLP-1 with native gastrin (Compound B)
Text: In this example, the effect of treatment by a combination of GLP-1 and unmodified gastrin and GLP-1 and modified gastrin compounds/conjugates were examined in NOD mice with recent onset diabetes, to determine whether administration of both GLP-1 and gastrin would prevent severe hyperglycemia as well as increase pancreatic insulin content in NOD mice with recent-onset diabetes. The GLP-1 used was GLP-1 which is the biologically active fragment of human/mouse GLP-1 (having residues at positions 7-36 compared to the precursor from which the fragment is processed; obtained from Bachem H6795). […]
Non-obese diabetic (NOD) female mice, ages 12-14 weeks, were monitored for development of onset of diabetes (fasting blood glucose >8.0 to 15 mmol/l), and within 48 hours after onset of symptoms, four groups of mice were each treated as follows: one group was treated with vehicle only, and the other group was administered 100 μg/kg/day of GLP-1, and the remaining groups were treated with combination of GLP-1 (100 μg/kg/day) and gastrin compound (3 μg/kg/day gastrin equivalent), each treatment administered via the intraperitoneal route daily.
Therapy was administered for 14 days. Animals were monitored weekly for fasting blood glucose (FBG) levels. FBG levels were measured at about 12 hours after food had been withdrawn, and 24 hours after the last peptide or vehicle injection. […]

[3] = in vivo; cited from earlier work

clearance from the bloodstream [1]: rapidly cleared
Compound: CC(C)C[C@H](NC(=O)[C@H](Cc1c[nH]c2ccccc12)NC(=O)CNC(=O)[C@H](Cc1ccc(O)cc1)NC(=O)[C@H](C)NC(=O)[C@H](CCC(=O)O)NC(=O)[C@H](CCC(=O)O)NC(=O)[C@H](CCC(=O)O)NC(=O)[C@H](CCC(=O)O)NC(=O)[C@H](CCC(=O)O)NC(=O)[C@H](CC(C)C)NC(=O)[C@H](Cc1c[nH]c2ccccc12)NC(=O)[C@@H]1CCCN1C(=O)CNC(=O)[C@@H]1CCC(=O)N1)C(=O)N[C@@H](CC(=O)O)C(=O)N[C@@H](Cc1ccccc1)C(N)=O [Compound B] ([pGlu]GPWLEEEEEAYGWLDF-NH2)

Compound: Compound E: N-terminal Cys, gastrin residues 2-17 of SEQ ID NO: 4, no linker (GPWLEEEEEAYGWLDF; N-terminal Cys)
reduction of blood glucose levels [2]: more effecting in reducing blood glucose levels

Compound: Gastrin-17: Native peptide hormone gastrin, 17-residue form (little gastrin or small gastrin)
circulating half-life [3]: 5 to 9 min
